Data on eleven compounds can be found in patent US20130137691A1, “DERIVATIVES OF OXADIAZOLE AND PYRIDAZINE, THEIR PREPARATION AND THEIR APPLICATION IN THERAPEUTICS” (SANOFI, priority 2010, published 2013).

Data set [1] deals with T1, DGAT-1 enzyme (Homo sapiens, UniProt O75907).
T1 construct: made in house; host or cells: Sf9 insect cells (baculovirus)
T1 sequence (O75907 1-488): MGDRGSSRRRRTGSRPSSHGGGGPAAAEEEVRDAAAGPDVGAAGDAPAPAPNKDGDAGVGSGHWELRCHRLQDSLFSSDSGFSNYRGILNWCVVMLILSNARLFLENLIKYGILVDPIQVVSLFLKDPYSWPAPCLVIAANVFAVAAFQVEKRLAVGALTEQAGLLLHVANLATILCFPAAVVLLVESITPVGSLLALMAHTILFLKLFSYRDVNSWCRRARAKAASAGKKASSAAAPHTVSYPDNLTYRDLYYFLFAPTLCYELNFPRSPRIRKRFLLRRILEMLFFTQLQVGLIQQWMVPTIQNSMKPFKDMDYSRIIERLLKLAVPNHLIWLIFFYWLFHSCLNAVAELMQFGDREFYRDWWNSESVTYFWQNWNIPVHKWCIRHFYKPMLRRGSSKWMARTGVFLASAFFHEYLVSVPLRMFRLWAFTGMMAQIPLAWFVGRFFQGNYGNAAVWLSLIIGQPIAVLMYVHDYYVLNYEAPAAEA
Description: DGAT-1 enzyme inhibition, phase partitioning assay (PPA), 96-well. Type of data set: biochemical. To be noted: recombinant DGAT-1 produced in Sf9 insect cells; 1,2-di(cis-9-octadecenoyl)-sn-glycerol and octanoylCoA; read-out: IC50, concentration that inhibits 50% of the activity of DGAT-1. The method, then: The recombinant DGAT-1 protein was produced in Sf9 insect cells transfected with a baculovirus. The reaction was carried out by incubating the enzyme in the presence of 1,2-di(cis-9-octadecenoyl)-sn-glycerol and octanoylCoA. The amount of triacylglycerol formed during the reaction is measured. […] The radioactivity is measured using a MicroBeta counter (Perkin Elmer).

In data set [2] the test system is triglyceride biosynthesis in Chang liver cells. Description: Inhibition of triglyceride biosynthesis in Chang liver cells ([14C] glycerol incorporation). The note with it: read-out: inhibitory activity on triglyceride biosynthesis, concentration that inhibits 50% of the activity.
Description: These trials consisted in measuring the in vitro inhibitory activity of the compounds of the invention on a cell test.
Chang liver cells at 80% confluence are detached with trypsin-EDTA, 4 ml per 175 cm^2 flask. After centrifugation at 1300×g for 5 minutes, the cell pellet is washed once with PBS and then resuspended in whole medium. The number of cells and their viability are determined on Mallassez cells via the exclusion method with trypan blue.
150 000 cells are inoculated per well into a 24-well plate for a minimum of 3 h in DMEM medium 4.5 g/l of glucose supplemented with 10% FCS and with antibiotics, and are maintained at 37° C. in an incubator with CO2 (5%).
After 3 h, the cells have adhered, the medium is removed and replaced overnight with DMEM medium 4.5 g/l of glucose with 2% of BSA/oleate.
Next, the cell membranes are destroyed by sonication on a water bath, for 30 minutes. […] The radioactivity is measured using a Flo One C625TR machine (Perkin-Elmer).
The inhibitory activity on triglyceride biosynthesis is given by the concentration that inhibits 50% of the activity.

Molecules are shown by their SMILES.

`O=C(Nc1nc(Cc2ccccc2)no1)c1ccc(O[C@H]2CC[C@@H](C(=O)O)CC2)nc1` [Compound 10, cis-4-[5-(3-benzyl[1.2.4]oxadiazol-5-ylcarbamoyl)pyridin-2-yloxy]-cyclohexanecarboxylic acid] had a melting point of 205 to 210 °C. For the same compound, the IC50 in data set [1] worked out at 81 nM. In the same order, the values of `COc1ccc(-c2ccc(NC(=O)c3ccc(O[C@H]4CC[C@@H](C(=O)O)CC4)cc3)nn2)cc1` [Compound 12, cis-4-{4-[6-(4-methoxyphenyl)pyridazin-3-ylcarbamoyl]phenoxy}-cyclohexanecarboxylic acid] are 319 to 322 °C and 7180 nM. For `O=C(O)CC[C@H]1CC[C@H](c2ccc(C(=O)Nc3nc(Cc4ccccc4)no3)cc2)CC1` [Compound 3d, trans-3-{4-[4-(3-benzyl[1.2.4]oxadiazol-5-ylcarbamoyl)phenyl]cyclohexyl}propionic acid], the melting point turned out to be 193 °C. Further, in data set [1], the IC50 came to 927 nM. In the same order, the values of `O=C(O)/C=C/[C@H]1CC[C@H](c2ccc(C(=O)Nc3nc(Cc4ccccc4)no3)cc2)CC1` [Compound 3c, (E)-3-{4-[4-(3-benzyl[1.2.4]oxadiazol-5-ylcarbamoyl)phenyl]cyclohexyl}acrylic acid] are 210 °C and 2210 nM.

Regarding `O=C(Nc1nc(C2(c3ccccc3)CC2)no1)c1ccc(O[C@H]2CC[C@@H](C(=O)O)CC2)cc1` [Compound 6, cis-4-{4-[3-(1-phenylcyclopropyl)[1.2.4]oxadiazol-5-ylcarbamoyl]phenoxy}-cyclohexanecarboxylic acid], the melting point lay in the range of 215 to 222 °C. For the same compound, the IC50 in data set [1] stood at 3760 nM. `O=C(Nc1ccc(Nc2ccccc2)nn1)c1ccc(O[C@H]2CC[C@@H](C(=O)O)CC2)cc1` [Compound 11, cis-4-[4-(6-phenylaminopyridazin-3-ylcarbamoyl)phenoxy]cyclohexanecarboxylic acid] showed a melting point of 259 to 261 °C. Moreover, the IC50 in data set [1] turned out to be 5910 nM. In the case of `O=C(Nc1ccc(NC2CCCC2)nn1)c1ccc(O[C@H]2CC[C@@H](C(=O)O)CC2)cc1` [Compound 9, cis 4-[4-(6-cyclopentylaminopyridazin-3-ylcarbamoyl)phenoxy]-cyclohexanecarboxylic acid], the IC50 in data set [1] came out at 51 nM. For the compound `CC(C)(c1ccccc1)c1noc(NC(=O)c2ccc(O[C@H]3CC[C@@H](C(=O)O)CC3)cc2)n1` [Compound 7], the melting point is 250 to 255 °C. Moreover, the IC50 in data set [1] was found to be 5700 nM.

Consider `O=C(O)CC1CCC(c2ccc(C(=O)Nc3ccc(Cc4ccccc4)nn3)cc2)CC1` (stereo not drawn) [Compound 3, {4-[4-(6-benzylpyridazin-3-ylcarbamoyl)phenyl]cyclohexyl}acetic acid], for which the IC50 in data set [1] worked out at 890 nM. For `O=C(Nc1nc(COc2ccccc2)no1)c1ccc(O[C@H]2CC[C@@H](C(=O)O)CC2)cc1` [Compound 8, cis-4-[4-(3-phenoxymethyl[1.2.4]oxadiazol-5-ylcarbamoyl)phenoxy]cyclohexanecarboxylic acid], the melting point was 210 to 212 °C. In addition, the IC50 in data set [2] came out at 319 nM. For the same compound, in data set [1], the IC50 is 94 nM. In turn, `O=C(Nc1nc(Cc2ccccc2)no1)c1ccc(C2CCC(C3CC3C(=O)O)CC2)cc1` (stereo not drawn) [Compound 3b, trans-2-{4-[4-(3-benzyl[1.2.4]oxadiazol-5-ylcarbamoyl)phenyl]cyclohexyl}cyclopropanecarboxylic acid] yielded a melting point of 187 °C. Also, the IC50 in data set [1] amounted to 742 nM.
